Eleven molecules from PubChem BioAssay (NCI) can be followed below.

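Dose response: 5 concentrations. Exposure: 48 h. Format: 96-well plates. Endpoint: linear interpolation; highest concentration if not reached. GI50 = concentration required for 50% inhibition of growth. TGI marks complete inhibition of growth.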 Bounds are passed on as bounds.

Some test systems named below: SF-268 CNS; CCRF-CEM leukemia; OVCAR-5 ovarian; NCI-H522 lung; MALME-3M melanoma; SF-539 CNS; RXF 393 renal; SW-620 colon; RPMI-8226 leukemia; HT29 colon; MDA-MB-435.
Assay in all cases: growth of human tumour cells (NCI), 48 h

`C=C(C)C(=O)O[C@H]1CC2(CO)O[C@@H]2CC/C(COC(C)=O)=C/C2OC(=O)C(=C)[C@@H]21` (stereo not given in full): the TGI with SF-268 CNS was above 100 µM; in the assay with CCRF-CEM leukemia, 39.3 µM; in the assay with OVCAR-5 ovarian it was above 100 µM; in the assay on NCI-H522 lung it was 31.6 µM; with MALME-3M melanoma it was 62.2 µM; in the assay with SF-539 CNS it was above 100 µM. Also, the TGI in the assay on RXF 393 renal was 26.4 µM; in the assay with SW-620 colon it was 54.7 µM; in the assay with RPMI-8226 leukemia, 31.3 µM; with HT29 colon it was above 100 µM; in the assay with MDA-MB-435, above 61.3 µM.
`COCCN(C(=O)c1ccccc1)C1CCC(=O)c2[nH]c3ccccc3c21` (stereo not given): the TGI is 28.4 µM with SF-268 CNS; 26.8 µM with CCRF-CEM leukemia; 30.6 µM with OVCAR-5 ovarian; 6.93 µM in the assay with NCI-H522 lung; 17.7 µM with MALME-3M melanoma; 24.3 µM in the assay on SF-539 CNS. The TGI was 15.2 µM in the assay on RXF 393 renal; 23.3 µM in the assay on SW-620 colon; 58.6 µM with RPMI-8226 leukemia; 24.3 µM in the assay on HT29 colon; 17.5 µM in the assay on MDA-MB-435.
For the molecule `CN1CCCC(OC(=O)c2cc3cc(CCl)ccc3oc2=O)C1` (stereo not given), the TGI in the assay with SF-268 CNS is 47 µM; in the assay with CCRF-CEM leukemia, 55 µM; in the assay with OVCAR-5 ovarian it was 43.4 µM; with NCI-H522 lung, 34.7 µM; in the assay on MALME-3M melanoma, 44.3 µM; in the assay with SF-539 CNS, above 100 µM. In addition, the TGI is 54.6 µM in the assay on RXF 393 renal; 64.8 µM in the assay on SW-620 colon; 89.1 µM in the assay with RPMI-8226 leukemia; 46.9 µM in the assay with HT29 colon; 41.6 µM in the assay on MDA-MB-435.
For the molecule `C#Cc1cccc(Nc2ncnc3cc(OCCOC)c(OCCOC)cc23)c1`, the GI50 is 14.6 µM with SF-268 CNS, 0.901 µM in the assay on NCI-H522 lung, 1.85 µM in the assay on MALME-3M melanoma and 3.97 µM in the assay with RXF 393 renal. Further, the TGI is above 100 µM with SF-268 CNS; above 100 µM in the assay on CCRF-CEM leukemia; above 100 µM in the assay with OVCAR-5 ovarian; 27.1 µM in the assay with NCI-H522 lung; 43 µM in the assay on MALME-3M melanoma; 81 µM in the assay with SF-539 CNS. Further, the TGI in the assay on RXF 393 renal is 34.9 µM; in the assay on SW-620 colon it was above 100 µM; in the assay on RPMI-8226 leukemia, above 74.7 µM; in the assay with HT29 colon it was above 100 µM; in the assay on MDA-MB-435, above 100 µM.
Consider `CC(=O)c1cc(S(=O)(=O)c2ccc(O)c(C(C)=O)c2)ccc1O`, for which the TGI in the assay on SF-268 CNS, in the assay on CCRF-CEM leukemia, in the assay with OVCAR-5 ovarian, with NCI-H522 lung, in the assay with MALME-3M melanoma and with SF-539 CNS was above 100 µM in each case. For the same molecule, the TGI in the assay on RXF 393 renal, in the assay with SW-620 colon, in the assay on RPMI-8226 leukemia, in the assay with HT29 colon and with MDA-MB-435 was above 100 µM each time.
For `COC(=O)NC(Nc1ccc(C)cc1)(C(F)(F)F)C(F)(F)F`, the TGI in the assay on SF-268 CNS, in the assay with CCRF-CEM leukemia, in the assay with OVCAR-5 ovarian, in the assay with NCI-H522 lung, in the assay on MALME-3M melanoma and with SF-539 CNS was above 100 µM each time. For the same molecule, the TGI was 93.9 µM in the assay on RXF 393 renal; above 100 µM in the assay on SW-620 colon; above 100 µM with RPMI-8226 leukemia; above 100 µM in the assay with HT29 colon; above 100 µM with MDA-MB-435.
With `CCC(=O)Nc1ccc(N2C(=O)/C(=C/c3ccc(O)c(OC)c3)N=C2c2ccccc2)cc1`, the TGI with SF-268 CNS, in the assay with CCRF-CEM leukemia, in the assay on OVCAR-5 ovarian, in the assay with NCI-H522 lung, in the assay on MALME-3M melanoma and in the assay with SF-539 CNS was above 100 µM throughout. Besides, the TGI with RXF 393 renal was 48.4 µM; in the assay on SW-620 colon, above 100 µM; in the assay with RPMI-8226 leukemia, above 100 µM; in the assay with HT29 colon, above 100 µM; in the assay with MDA-MB-435, above 100 µM.
On to `CC(C)Oc1cc2c(cc1O)CC[C@@H]1[C@@H]2CC[C@]2(C)[C@@H](O)CC[C@@H]12`, for which the TGI is 51.7 µM with SF-268 CNS; above 39.8 µM in the assay with CCRF-CEM leukemia; 60.7 µM with OVCAR-5 ovarian; 6.75 µM with NCI-H522 lung; 27.3 µM in the assay with MALME-3M melanoma; 6.93 µM in the assay on SF-539 CNS. Also, the TGI in the assay on RXF 393 renal was found to be 17.2 µM; in the assay on SW-620 colon, 27.2 µM; with RPMI-8226 leukemia, 35.7 µM; in the assay with HT29 colon, 23 µM; with MDA-MB-435, 10.9 µM.
As for `CCCCN(CCCC)C1=Nc2ccccc2-n2c(nnc2C(=O)OCC)C1`, the TGI in the assay on SF-268 CNS was above 100 µM; with CCRF-CEM leukemia, above 100 µM; in the assay with OVCAR-5 ovarian it was above 100 µM; with NCI-H522 lung, above 100 µM; in the assay on MALME-3M melanoma it was 82.1 µM; in the assay with SF-539 CNS it was above 100 µM. Also, the TGI is 77.4 µM in the assay with RXF 393 renal; above 100 µM in the assay with SW-620 colon; above 100 µM in the assay on RPMI-8226 leukemia; above 100 µM in the assay on HT29 colon; above 100 µM in the assay with MDA-MB-435.
As for `O=P1(N(CCCl)CCCl)NCCCO1` (stereo not given), the TGI was above 250 µM in the assay with SF-268 CNS; 213 µM with CCRF-CEM leukemia; above 238 µM with OVCAR-5 ovarian; above 250 µM with NCI-H522 lung; above 250 µM with MALME-3M melanoma; above 250 µM in the assay on SF-539 CNS. For the same molecule, the TGI is above 250 µM in the assay on RXF 393 renal; above 250 µM in the assay on SW-620 colon; above 250 µM in the assay with RPMI-8226 leukemia; above 231 µM in the assay with HT29 colon; above 250 µM in the assay on MDA-MB-435.
In the case of `CN(c1ccc(Cl)cc1)S(=O)(=O)c1ccccc1`, the TGI with SF-268 CNS, in the assay on CCRF-CEM leukemia, in the assay on OVCAR-5 ovarian, in the assay on NCI-H522 lung, with MALME-3M melanoma and with SF-539 CNS was above 100 µM in each case. For the same molecule, the TGI in the assay with RXF 393 renal was 62.3 µM; with SW-620 colon it was above 100 µM; with RPMI-8226 leukemia, above 100 µM; in the assay with HT29 colon it was above 100 µM; with MDA-MB-435, above 100 µM.
